According to ChEMBL document CHEMBL5291721, “A preclinical secondary pharmacology resource illuminates target-adverse drug reaction associations of marketed drugs” (Nat Commun, 2023):

Experiments:
[1] = molecular target: T1, Type-1 angiotensin II receptor (Homo sapiens, UniProt P30556)
T1 sequence (P30556 whole entry): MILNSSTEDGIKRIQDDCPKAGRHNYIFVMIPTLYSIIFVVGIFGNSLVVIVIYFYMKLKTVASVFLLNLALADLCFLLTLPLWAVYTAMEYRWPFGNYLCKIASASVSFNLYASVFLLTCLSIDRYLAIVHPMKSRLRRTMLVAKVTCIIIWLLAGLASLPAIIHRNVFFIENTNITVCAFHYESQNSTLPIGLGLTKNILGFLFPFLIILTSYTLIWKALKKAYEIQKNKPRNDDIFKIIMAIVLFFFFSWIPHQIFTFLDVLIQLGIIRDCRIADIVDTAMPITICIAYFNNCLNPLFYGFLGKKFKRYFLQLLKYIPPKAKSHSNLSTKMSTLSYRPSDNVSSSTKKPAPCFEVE

[2] = molecular target: 5-hydroxytryptamine receptor 2B (Homo sapiens, UniProt P41595); type: functional, cell-based
Chain of 5-hydroxytryptamine receptor 2B (P41595 whole entry): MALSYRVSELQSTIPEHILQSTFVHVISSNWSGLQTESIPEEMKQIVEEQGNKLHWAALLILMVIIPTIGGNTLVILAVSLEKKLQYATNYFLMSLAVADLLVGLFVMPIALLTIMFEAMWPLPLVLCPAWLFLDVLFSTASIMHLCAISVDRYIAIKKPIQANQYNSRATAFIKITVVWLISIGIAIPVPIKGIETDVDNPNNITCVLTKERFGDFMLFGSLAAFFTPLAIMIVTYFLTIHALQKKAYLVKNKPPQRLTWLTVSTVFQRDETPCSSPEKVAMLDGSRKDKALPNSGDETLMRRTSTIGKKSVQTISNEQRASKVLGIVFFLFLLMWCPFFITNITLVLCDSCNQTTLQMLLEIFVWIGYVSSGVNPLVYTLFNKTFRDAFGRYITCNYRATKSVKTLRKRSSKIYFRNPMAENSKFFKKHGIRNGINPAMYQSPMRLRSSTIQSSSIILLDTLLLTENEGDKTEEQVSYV

[3] = molecular target: Voltage-dependent L-type calcium channel subunit alpha-1C (Rattus norvegicus, UniProt P22002); type: functional
Chain of Voltage-dependent L-type calcium channel subunit alpha-1C (P22002 whole entry): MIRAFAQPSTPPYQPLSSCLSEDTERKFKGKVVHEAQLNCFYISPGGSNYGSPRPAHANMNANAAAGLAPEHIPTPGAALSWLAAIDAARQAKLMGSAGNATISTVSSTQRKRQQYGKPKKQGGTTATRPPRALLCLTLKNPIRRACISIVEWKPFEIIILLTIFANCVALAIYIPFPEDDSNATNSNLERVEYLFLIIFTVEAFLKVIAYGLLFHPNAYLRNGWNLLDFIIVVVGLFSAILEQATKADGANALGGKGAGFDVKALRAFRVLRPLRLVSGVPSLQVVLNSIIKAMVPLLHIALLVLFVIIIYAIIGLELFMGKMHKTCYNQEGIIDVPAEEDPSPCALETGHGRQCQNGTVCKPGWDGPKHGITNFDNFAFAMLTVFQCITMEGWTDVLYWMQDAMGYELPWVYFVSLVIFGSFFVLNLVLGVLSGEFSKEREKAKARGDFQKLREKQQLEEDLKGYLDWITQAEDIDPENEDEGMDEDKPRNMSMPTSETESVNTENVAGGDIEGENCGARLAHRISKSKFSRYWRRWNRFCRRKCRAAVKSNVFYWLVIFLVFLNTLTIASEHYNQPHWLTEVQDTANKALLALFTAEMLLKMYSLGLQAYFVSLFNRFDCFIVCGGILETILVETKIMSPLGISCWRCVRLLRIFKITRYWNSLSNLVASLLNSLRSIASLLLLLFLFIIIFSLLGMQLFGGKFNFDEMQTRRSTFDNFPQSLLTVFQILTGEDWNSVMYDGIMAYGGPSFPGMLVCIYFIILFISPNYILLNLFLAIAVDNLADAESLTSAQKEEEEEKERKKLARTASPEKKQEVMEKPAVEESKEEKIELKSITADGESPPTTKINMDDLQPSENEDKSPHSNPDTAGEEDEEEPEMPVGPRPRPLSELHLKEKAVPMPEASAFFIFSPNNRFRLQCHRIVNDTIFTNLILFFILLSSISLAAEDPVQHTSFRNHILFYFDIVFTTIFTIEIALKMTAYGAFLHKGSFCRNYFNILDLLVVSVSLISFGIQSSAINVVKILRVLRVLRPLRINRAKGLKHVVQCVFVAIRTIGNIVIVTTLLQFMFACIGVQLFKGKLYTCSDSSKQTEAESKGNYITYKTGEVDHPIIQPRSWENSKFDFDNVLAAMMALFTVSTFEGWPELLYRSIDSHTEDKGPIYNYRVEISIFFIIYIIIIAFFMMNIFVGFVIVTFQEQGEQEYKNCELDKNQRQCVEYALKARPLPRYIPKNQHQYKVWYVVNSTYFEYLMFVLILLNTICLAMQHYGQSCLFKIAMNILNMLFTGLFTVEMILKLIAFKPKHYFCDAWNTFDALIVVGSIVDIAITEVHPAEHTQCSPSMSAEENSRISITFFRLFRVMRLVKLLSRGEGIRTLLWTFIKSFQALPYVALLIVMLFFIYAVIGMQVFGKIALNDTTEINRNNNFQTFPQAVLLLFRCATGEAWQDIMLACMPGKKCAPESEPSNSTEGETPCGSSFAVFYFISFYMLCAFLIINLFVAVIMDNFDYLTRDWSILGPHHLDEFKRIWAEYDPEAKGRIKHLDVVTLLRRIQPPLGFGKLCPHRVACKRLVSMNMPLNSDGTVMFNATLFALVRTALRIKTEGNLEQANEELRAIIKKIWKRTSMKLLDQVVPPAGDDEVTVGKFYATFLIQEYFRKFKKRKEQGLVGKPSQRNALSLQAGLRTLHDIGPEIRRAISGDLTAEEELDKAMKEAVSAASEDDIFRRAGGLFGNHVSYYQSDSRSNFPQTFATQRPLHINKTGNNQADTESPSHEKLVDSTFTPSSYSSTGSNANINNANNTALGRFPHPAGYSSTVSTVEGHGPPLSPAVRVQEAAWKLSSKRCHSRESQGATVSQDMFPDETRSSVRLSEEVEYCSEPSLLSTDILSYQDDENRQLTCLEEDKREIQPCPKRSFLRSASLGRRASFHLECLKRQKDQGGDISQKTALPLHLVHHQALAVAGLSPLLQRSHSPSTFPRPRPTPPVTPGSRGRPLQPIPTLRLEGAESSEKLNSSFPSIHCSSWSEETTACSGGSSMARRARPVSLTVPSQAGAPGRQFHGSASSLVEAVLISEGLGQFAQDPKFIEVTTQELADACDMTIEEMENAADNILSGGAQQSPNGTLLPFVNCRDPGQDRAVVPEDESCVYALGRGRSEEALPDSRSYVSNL

[4] = molecular target: Delta-type opioid receptor (Homo sapiens, UniProt P41143)
Chain of Delta-type opioid receptor (P41143 whole entry): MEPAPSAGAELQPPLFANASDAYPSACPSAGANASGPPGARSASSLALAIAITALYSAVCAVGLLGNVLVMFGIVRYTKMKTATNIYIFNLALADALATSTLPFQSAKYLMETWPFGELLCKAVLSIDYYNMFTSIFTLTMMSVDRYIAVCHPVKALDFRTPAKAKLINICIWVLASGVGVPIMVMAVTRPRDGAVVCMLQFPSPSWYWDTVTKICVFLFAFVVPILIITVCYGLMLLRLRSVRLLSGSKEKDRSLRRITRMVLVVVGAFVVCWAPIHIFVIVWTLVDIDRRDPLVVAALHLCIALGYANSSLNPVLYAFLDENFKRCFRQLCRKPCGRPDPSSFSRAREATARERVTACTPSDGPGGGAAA

[5] = molecular target: T2, Neuropeptide Y receptor type 1 (Homo sapiens, UniProt P25929)
T2 sequence (P25929 whole entry): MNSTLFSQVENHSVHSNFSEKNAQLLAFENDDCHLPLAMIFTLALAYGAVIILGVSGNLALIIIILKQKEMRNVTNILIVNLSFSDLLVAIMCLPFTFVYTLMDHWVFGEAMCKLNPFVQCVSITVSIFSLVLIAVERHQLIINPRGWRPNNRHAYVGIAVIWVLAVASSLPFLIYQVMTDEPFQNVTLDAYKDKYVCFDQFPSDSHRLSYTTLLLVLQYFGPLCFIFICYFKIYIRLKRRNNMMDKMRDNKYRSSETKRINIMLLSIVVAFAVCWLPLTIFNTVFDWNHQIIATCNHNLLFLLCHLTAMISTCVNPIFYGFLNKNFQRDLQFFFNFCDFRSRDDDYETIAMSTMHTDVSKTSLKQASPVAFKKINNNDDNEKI

[6] = molecular target: T3, Glucocorticoid receptor (Homo sapiens, UniProt P04150)
T3 sequence (P04150 whole entry): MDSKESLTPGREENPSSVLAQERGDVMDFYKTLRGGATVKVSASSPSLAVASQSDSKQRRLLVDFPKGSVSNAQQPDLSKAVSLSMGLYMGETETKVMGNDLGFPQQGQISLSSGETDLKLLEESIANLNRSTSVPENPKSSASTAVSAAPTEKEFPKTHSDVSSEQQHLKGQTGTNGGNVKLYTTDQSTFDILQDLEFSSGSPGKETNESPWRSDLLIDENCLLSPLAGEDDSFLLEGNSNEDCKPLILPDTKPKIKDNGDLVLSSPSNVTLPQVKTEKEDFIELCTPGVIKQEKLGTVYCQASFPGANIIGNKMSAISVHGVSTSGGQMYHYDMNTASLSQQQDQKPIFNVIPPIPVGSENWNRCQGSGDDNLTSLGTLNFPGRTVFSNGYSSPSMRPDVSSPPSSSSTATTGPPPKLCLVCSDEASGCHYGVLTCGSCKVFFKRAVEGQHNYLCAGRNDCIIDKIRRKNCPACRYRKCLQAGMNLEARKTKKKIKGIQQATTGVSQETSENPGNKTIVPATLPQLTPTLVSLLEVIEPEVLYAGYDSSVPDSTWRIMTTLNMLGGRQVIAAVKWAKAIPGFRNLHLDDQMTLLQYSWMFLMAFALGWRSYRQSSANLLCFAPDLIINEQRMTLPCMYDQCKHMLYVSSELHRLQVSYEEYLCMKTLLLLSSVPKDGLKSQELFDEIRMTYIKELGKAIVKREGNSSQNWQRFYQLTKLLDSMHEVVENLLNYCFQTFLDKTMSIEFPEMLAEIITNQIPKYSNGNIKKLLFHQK

[7] = molecular target: Glutamate receptor ionotropic, NMDA 1 (Rattus norvegicus, UniProt P35439)
[8] = molecular target: T4, Equilibrative nucleoside transporter 1 (Homo sapiens, UniProt Q99808)
T4 sequence (Q99808 whole entry): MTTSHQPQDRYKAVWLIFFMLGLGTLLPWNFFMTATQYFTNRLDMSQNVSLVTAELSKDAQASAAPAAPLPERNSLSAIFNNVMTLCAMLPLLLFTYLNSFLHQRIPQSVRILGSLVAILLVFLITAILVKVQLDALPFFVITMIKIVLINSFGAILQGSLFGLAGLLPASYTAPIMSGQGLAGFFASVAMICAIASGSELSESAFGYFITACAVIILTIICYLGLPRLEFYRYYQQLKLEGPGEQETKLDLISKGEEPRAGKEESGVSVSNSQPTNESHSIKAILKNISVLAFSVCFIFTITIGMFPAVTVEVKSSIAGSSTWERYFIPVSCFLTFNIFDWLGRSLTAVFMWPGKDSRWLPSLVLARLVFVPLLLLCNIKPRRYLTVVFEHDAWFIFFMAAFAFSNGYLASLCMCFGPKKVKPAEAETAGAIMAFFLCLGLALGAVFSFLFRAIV

[9] = molecular target: Voltage-gated inwardly rectifying potassium channel KCNH2 (Homo sapiens, UniProt Q12809); type: functional; conditions: read-out: AC50
Chain of Voltage-gated inwardly rectifying potassium channel KCNH2 (Q12809 whole entry): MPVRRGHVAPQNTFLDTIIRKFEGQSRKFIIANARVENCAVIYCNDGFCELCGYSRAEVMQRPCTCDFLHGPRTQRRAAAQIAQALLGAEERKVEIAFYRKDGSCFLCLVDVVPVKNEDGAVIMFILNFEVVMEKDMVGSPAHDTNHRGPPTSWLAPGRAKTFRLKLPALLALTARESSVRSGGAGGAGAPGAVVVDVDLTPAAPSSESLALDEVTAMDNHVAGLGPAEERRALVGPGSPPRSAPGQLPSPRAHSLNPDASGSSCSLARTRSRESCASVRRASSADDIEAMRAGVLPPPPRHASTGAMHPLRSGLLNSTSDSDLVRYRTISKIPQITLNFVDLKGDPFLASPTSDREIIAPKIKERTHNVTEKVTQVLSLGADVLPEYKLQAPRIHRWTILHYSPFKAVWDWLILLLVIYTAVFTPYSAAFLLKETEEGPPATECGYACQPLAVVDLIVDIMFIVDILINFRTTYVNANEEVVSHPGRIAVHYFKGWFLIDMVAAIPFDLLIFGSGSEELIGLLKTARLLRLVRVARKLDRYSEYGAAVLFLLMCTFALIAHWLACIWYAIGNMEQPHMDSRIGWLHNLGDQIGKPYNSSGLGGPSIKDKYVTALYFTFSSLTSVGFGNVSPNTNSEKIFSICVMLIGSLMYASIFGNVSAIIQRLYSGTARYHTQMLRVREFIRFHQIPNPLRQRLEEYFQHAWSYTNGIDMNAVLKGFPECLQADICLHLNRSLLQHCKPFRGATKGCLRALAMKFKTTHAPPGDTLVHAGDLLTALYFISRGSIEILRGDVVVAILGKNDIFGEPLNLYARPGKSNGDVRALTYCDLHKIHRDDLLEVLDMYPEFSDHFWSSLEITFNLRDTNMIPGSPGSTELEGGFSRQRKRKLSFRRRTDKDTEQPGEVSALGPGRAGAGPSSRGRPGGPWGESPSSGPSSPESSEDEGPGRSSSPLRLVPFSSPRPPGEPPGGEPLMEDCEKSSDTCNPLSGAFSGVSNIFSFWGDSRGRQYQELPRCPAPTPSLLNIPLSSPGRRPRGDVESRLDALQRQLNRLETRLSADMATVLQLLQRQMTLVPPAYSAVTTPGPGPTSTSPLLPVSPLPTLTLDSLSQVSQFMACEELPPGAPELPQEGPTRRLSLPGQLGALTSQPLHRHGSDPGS

[10] = molecular target: Motilin receptor (Homo sapiens, UniProt O43193)
Chain of Motilin receptor (O43193 whole entry): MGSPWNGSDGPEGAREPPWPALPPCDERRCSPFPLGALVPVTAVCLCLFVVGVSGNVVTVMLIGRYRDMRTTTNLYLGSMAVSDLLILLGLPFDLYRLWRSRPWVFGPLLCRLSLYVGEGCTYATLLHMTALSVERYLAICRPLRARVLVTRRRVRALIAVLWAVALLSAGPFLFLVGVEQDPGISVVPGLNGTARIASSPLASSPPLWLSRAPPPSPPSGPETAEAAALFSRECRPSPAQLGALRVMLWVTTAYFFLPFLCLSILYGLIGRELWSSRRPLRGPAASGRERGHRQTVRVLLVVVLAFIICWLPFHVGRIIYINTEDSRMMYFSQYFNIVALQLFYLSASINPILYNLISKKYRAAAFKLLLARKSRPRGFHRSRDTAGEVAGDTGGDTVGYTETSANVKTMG

[11] = molecular target: T5, Endothelin-1 receptor (Homo sapiens, UniProt P25101)
T5 sequence (P25101 whole entry): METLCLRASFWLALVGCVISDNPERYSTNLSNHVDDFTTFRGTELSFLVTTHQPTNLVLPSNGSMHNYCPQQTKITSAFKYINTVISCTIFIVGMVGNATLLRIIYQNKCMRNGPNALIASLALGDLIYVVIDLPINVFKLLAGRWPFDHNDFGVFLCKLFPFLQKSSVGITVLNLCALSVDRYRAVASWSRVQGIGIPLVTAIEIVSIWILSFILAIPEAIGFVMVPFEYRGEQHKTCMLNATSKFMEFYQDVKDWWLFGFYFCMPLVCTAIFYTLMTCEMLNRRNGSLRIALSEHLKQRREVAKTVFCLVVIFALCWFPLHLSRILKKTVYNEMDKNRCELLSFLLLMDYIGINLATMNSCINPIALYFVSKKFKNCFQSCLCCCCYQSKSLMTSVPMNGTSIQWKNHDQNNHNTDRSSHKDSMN

[12] = molecular target: Vasopressin V1a receptor (Homo sapiens, UniProt P37288)
Chain of Vasopressin V1a receptor (P37288 whole entry): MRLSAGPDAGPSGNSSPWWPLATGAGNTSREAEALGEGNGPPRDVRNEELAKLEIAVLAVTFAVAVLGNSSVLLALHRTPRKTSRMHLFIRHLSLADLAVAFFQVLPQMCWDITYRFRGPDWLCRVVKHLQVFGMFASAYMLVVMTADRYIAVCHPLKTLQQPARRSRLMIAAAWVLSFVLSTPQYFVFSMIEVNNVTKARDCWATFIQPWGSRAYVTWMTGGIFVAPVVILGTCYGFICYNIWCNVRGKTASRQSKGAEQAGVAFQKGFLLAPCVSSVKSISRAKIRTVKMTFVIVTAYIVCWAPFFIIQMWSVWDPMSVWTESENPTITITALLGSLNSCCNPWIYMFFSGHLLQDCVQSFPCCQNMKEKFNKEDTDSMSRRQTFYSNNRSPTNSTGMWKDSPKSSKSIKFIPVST
Further: assay procedure not described here.

| Compound | AC50 [1] | AC50 [2] | AC50 [3] | AC50 [4] | AC50 [5] | AC50 [6] | AC50 [7] | AC50 [8] | AC50 [9] | AC50 [10] | AC50 [11] | AC50 [12] |
| --- | --- | --- | --- | --- | --- | --- | --- | --- | --- | --- | --- | --- |
| CC(C)(C)NC[C@H](O)COc1nsnc1N1CCOCC1 [TIMOLOL] | > 30 µM | > 30 µM | > 30 µM | > 30 µM | > 30 µM | > 30 µM | > 30 µM | > 30 µM | > 30 µM | > 30 µM | > 30 µM |  |
| COc1ccc(/C=C/C(=O)Nc2ccccc2C(=O)O)cc1OC | > 30 µM | > 30 µM | > 30 µM | > 30 µM | > 30 µM | > 30 µM | > 30 µM | > 30 µM |  | > 30 µM | > 30 µM |  |
| Nc1nc2c(c(=O)[nH]1)N(C=O)C(CNc1ccc(C(=O)N[C@@H](CCC(=O)O)C(=O)O)cc1)CN2 (some centres undefined) [LEUCOVORIN] | > 30 µM | > 30 µM | > 30 µM | > 30 µM | > 30 µM | > 30 µM | > 30 µM | > 30 µM | > 30 µM | > 30 µM | > 30 µM |  |
| CS(=O)(=O)OCCCCOS(C)(=O)=O [BUSULFAN] | > 30 µM | > 30 µM |  | > 30 µM | > 30 µM |  | > 30 µM | > 30 µM | > 30 µM | > 30 µM | > 30 µM |  |
| COc1ccc(C(CN(C)C)C2(O)CCCCC2)cc1 (centres undefined) [VENLAFAXINE] | > 30 µM |  |  | > 30 µM | > 30 µM |  | > 10 µM | > 30 µM | > 30 µM | > 10 µM |  |  |
| CC(C)(C)NCC(O)c1cc(Cl)c(N)c(Cl)c1 (centres undefined) [CLENBUTEROL] | > 30 µM | > 30 µM | > 30 µM | > 30 µM | > 30 µM |  | > 30 µM | > 30 µM | > 30 µM | > 30 µM | > 30 µM |  |
| NCCCC(O)(P(=O)(O)O)P(=O)(O)O [ALENDRONIC ACID] | > 30 µM |  | > 10 µM | > 10 µM | > 30 µM | > 30 µM | > 10 µM | > 30 µM |  | > 10 µM | > 30 µM | > 10 µM |
| CC(C)CC(N(C)C)C1(c2ccc(Cl)cc2)CCC1 (centres undefined) [SIBUTRAMINE] | > 30 µM |  | > 10 µM | > 30 µM | > 30 µM | > 30 µM | > 10 µM | > 30 µM | 8.34 µM | > 10 µM | > 30 µM | > 10 µM |
| Nc1ccn([C@@H]2O[C@H](CO)[C@@H](O)C2(F)F)c(=O)n1 [GEMCITABINE] | > 30 µM | > 10 µM | > 10 µM | > 30 µM | > 30 µM | > 30 µM | > 10 µM |  | > 30 µM | > 10 µM |  | > 30 µM |
